Measurements as given in patent US11591331B2, “PARP1 inhibitors and uses thereof” (Xinthera, Inc., priority 2021, dated 2023).
pEC50: −log10 of the molar value.

Columns and labels:
[1] = In vitro human hepatic clearance in cellular relay format; format: in vitro ADME; conditions: cryopreserved hepatocytes in suspension (relay format); human hepatocytes relay, 5 incubations of 4 hrs, 0.5E+06 viable cells/mL
Experimental: (§1) Example C: In Vitro Human Hepatic Clearance in Cellular Relay Format
(§2) Working stocks of individual test articles were prepared at concentrations of 100 μM by diluting 10 mM stocks prepared in DMSO 100-fold (v:v) into ACN/1H2O (50/50, v:v). Human cryopreserved hepatocytes were thawed in a 37° C. water bath in <2 min., suspended in thawing media, and then centrifuged at 100×g for 10 min. Thawing media was aspirated, and pelleted hepatocytes were resuspended into incubation media at 1.5E+06 cells/mL. Cell viability was determined using an Acridine Orange/Propidium Iodine stain, and hepatocytes were further diluted with incubation media to 0.5E+06 viable cells/mL. Hepatocyte aliquots of 495 μL were added to wells of a 24-well plate, and test article incubations were initiated by the addition of 5 μL of 100 μM working stocks. Plates were incubated at 37° C. in a 5% CO2 atmosphere at 95% relative humidity on an orbital shaker at 300 rpm. Incubations were performed in duplicate. At time=0 and 4 hrs., aliquots of each incubation were extracted with 6 volumes ACN containing internal standards. After 4 hrs., hepatocytes were removed from the incubations via centrifugation, and supernatants were stored frozen until the following day at which point incubations were reinitiated by diluting thawed supernatants with freshly thawed hepatocytes in incubation media, again to a final concentration of 0.5E+06 viable cells/mL. These steps were repeated for a total of 5 incubations of 4 hrs. each covering 20 total hours of incubation. Incubational losses due to cellular uptake, nonspecific binding, and dilution at each relay step were corrected for. Supernatants of all incubation aliquots were diluted into ultrapure water prior to analysis via LC/MS/MS. In vitro intrinsic clearances (CLint) in μL/min/IE+06 cells were determined for each incubation from calculated in vitro half-lives determined using a standard log-linear regression approach. In vitro CLint values were scaled up using the following physiological scaling factors: 99E+06 cells/g human liver and 25.7 g human liver/kg body weight. Scaled intrinsic clearance values were finally introduced to the well-stirred liver model for the purpose of calculating predicted human hepatic clearance (CLhep,pred) in mL/min/kg assuming a human liver blood flow of 20.7 mL/min/kg and making no corrections for test article binding to red blood cells, plasma proteins, or components of the incubation system. S-Warfarin, Disopyramide and Diazepam were used as assay controls.

[2] = system: Human cryopreserved hepatocytes; assay: as above; format: in vitro ADME; conditions: predicted human hepatic clearance, well-stirred liver model, scaled from in vitro CLint
Experimental: as §1, §2

[3] = system: DLD-1 BRCA2(−/−); assay: Cell growth inhibition assay (CellTiter-Glo cell viability, 7 days); format: cell-based; conditions: Homo sapiens, 168 h, DLD-1 BRCA2(-/-) cells
[4] = system: DLD-1 parental; assay: as above; format: cell-based; conditions: Homo sapiens, 168 h, DLD-1 parental cells
From the text: Example A: Cell Growth Inhibition Assay
The objective of this study is to evaluate the effect of invention compounds on cell proliferation through the cell viability assay in DLD-1 BRCA2(−/−) and parental isogenic pair and MDA-MB-436 (mutated BRCA1) cell lines. The CellTiter-Glo (CTG) based cell viability assay is designed to determine the number of viable cells in the culture because of compound effect, by quantifying ATP, which indicates the presence of metabolically active cells.
DLD-1 BRCA2(−/−) and parental isogenic pair were cultured in RPMI 1640 supplemented with 10% fetal bovine serum (FBS), and MDA-MB-436 cells were cultured in DMEM supplemented with 10% FBS. Both are culture at 37° C. with 5% CO2. Invention compounds were distributed to the 384 well plate (Corning, 3764) using Echo acoustic liquid handler to form a 1:3 serially diluted final concentration with top dose of 10 or 30 μM. The cells were seeded into the plate in the density of 50 cells/well (DLD-1 parental), 200 cells/well (DLD-1 BRCA2−/−), or 500 cells/well (MDA-MB-436). After a short spun, the cells were cultured in a well moisturized incubator at 37° C. with 5% CO2 for 7 days without disturbance. The cell viability was measured by CellTiter Glo 2.0 assay kit (Promega, G9243), and growth inhibition rate was calculated and plotted against final compound concentration, and the data were fitted in Xfit to generate IC50.

[5] = system: MDA-MB-436 (mutated BRCA1) cell lines; assay: as above; format: cell-based; conditions: Homo sapiens, 168 h, MDA-MB-436 cells

| SMILES | Clhep,pred [2] [mL/min/kg] | pEC50 [3] | pEC50 [5] | half-life at 1 µM [1] [h] | pEC50 [4] |
| --- | --- | --- | --- | --- | --- |
| CCc1cc2ncc(CN3CCN(c4ccc(C(=O)NC)nc4)CC3)cc2[nH]c1=O [AZD5305] | 1.69 |  |  | 31.8 |  |
| CCc1cc2ncc(CN3CCN(c4ccc(C(=O)NC)nc4)[C@H](C)C3)cc2[nH]c1=O [Example 2, 5-[(2R)-4-[(7-ethyl-6-oxo-5H-1,5-naphthyridin-3-yl)methyl]-2-methylpiperazin-1-yl]-N-methylpyridine-2-carboxamide] | 1.71 | 8.32 | 8.40 | 31.5 | < 4.52 |
| CNC(=O)c1ccc(N2CCN(Cc3cnc4cc(C5CC5)c(=O)[nH]c4c3)CC2)cn1 [Example 15, 5-{4-[(7-cyclopropyl-6-oxo-5H-1,5-naphthyridin-3-yl)methyl]piperazin-1-yl}-N-methylpyridine-2-carboxamide] | <0.9 | 8.74 | 8.89 | > 62.1 | < 4.52 |
| O=C(NC1CC1)c1ccc(N2CCN(Cc3cnc4cc(C5CC5)c(=O)[nH]c4c3)CC2)cn1 [Example 24, N-cyclopropyl-5-{4-[(7-cyclopropyl-6-oxo-5H-1,5-naphthyridin-3-yl)methyl]piperazin-1-yl}pyridine-2-carboxamide] | <0.9 | 8.60 | 8.85 | > 62.1 | < 4.52 |
| CCc1cc2ncc(CN3CCN(c4ccc(C(=O)N[C@H](C)COC)nc4)CC3)cc2[nH]c1=O [Example 56] | <0.9 | 8.15 | 8.66 | > 62.1 |  |

Further lines, with some results ahead:

| Clhep,pred [2] [mL/min/kg] | pEC50 [3] | pEC50 [5] | SMILES | half-life at 1 µM [1] [h] | pEC50 [4] |
| --- | --- | --- | --- | --- | --- |
| 1.67 | 8.85 | 9.20 | CCc1cc2ncc(CN3CCN(c4ccc(C(=O)NC)nc4C#N)CC3)cc2[nH]c1=O [Example 1, 6-cyano-5-{4-[(7-ethyl-6-oxo-5H-1,5-naphthyridin-3-yl)methyl]piperazin-1-yl}-N-methylpyridine-2-carboxamide] | 32.5 | 2.30 |
| 0.53 | 8.60 | 8.85 | CCc1cc2ncc(CN3CCN(c4cnc(C(=O)NC)c(F)c4)CC3)cc2[nH]c1=O [Example 5, 5-(4-((7-ethyl-6-oxo-5,6-dihydro-1,5-naphthyridin-3-yl)methyl)piperazin-1-yl)-3-fluoro-N-methylpicolinamide] | 109 | 3.33 |
